In PMC7724679, “Identification of Repurposable Drugs and Adverse Drug Reactions for Various Courses of COVID-19 Based on Single-Cell RNA Sequencing Data” (ArXiv, 2020):

Experiments:
Assay type in all cases: cell-based
Vero E6 cells = experiment: Drug-induced cytotoxicity, CCK-8, Vero E6 cells; settings: 24 h
Procedure: (§1) The drug-induced cytotoxicity of the test drugs (tyrphostin-AG-1478 and brefeldin-a) on Calu-3 and Vero E6 cells was determined by a cell counting kit 8 (CCK-8, APExBIO). Cells were cultured overnight in 96-well cell-culture Petri dishes at a density of 1 × 10^4 cells/well. A 10 mM stock of drug was serially diluted in 100% DMSO to obtain a 10-point dilution series. Plates were cultured with fresh drug-containing medium at 37°C for 24 h. The DMSO concentration remained constant under all conditions at 0.05%. The absorbance of each well was determined by using a 96-well multiscanner. After subtracting background absorption, the results were expressed as a percentage of viability relative to that of control cultures that received no drug. Drug concentrations that inhibited cell viability by 50% (IC50) were determined by using GraphPad Prism 8 software.

[1] = tested on: Influenza A virus (IAV, Puerto Rico/8/1934(H1N1)); experiment: Antiviral assay, IAV viral RNA in supernatant by RT-qPCR, Calu-3 cells; settings: for IC50: read-out: IC50, antiviral activity against IAV
Calu-3 cells = experiment: Drug-induced cytotoxicity, CCK-8, Calu-3 cells; settings: 24 h
Procedure: as §1

[2] = tested on: Influenza A virus (IAV, Puerto Rico/8/1934(H1N1)); experiment: Antiviral assay, IAV viral RNA in supernatant by RT-qPCR, Vero E6 cells; settings: for IC50: read-out: IC50, antiviral activity against IAV
[3] = tested on: mRNA levels of MX1, ISG15, IFNB1, ACE2; experiment: Cellular mRNA levels by qPCR in IAV-infected Calu-3 cells; settings: IAV-infected Calu-3 cells (MOI of 1), 0 to 10 μM

| SMILES | cytotoxicity (cell viability) (Vero E6 cells) | IAV viral RNA levels in cell culture supernatant [1] | IC50 ([1]; Influenza A virus, H1N1 / PR8, Calu-3) | cytotoxicity (cell viability) (Calu-3 cells) | IAV viral RNA levels in cell culture supernatant [2] | IC50 ([2]; Influenza A virus, H1N1 / PR8, Vero C1008) | ACE2 mRNA level [3] | IFNβ (IFNB1) mRNA level [3] | ISG15 mRNA level [3] | MX1 mRNA level [3] | IC50 [1] | IC50 [2] |
| --- | --- | --- | --- | --- | --- | --- | --- | --- | --- | --- | --- | --- |
| C[C@H]1CCC/C=C/[C@@H]2C[C@H](O)C[C@H]2[C@H](O)/C=C/C(=O)O1 [Brefeldin-a] | slightly reduced viability | reduced IAV viral RNA levels dose dependently | 59 nM | Neither compound caused significant cytotoxicity | reduced IAV viral RNA levels dose dependently | 246 nM | significantly reduced | significantly reduced | significantly reduced | significantly reduced |  |  |
| COc1cc2ncnc(Nc3cccc(Cl)c3)c2cc1OC [Tyrphostin-AG-1478] | Neither compound caused significant cytotoxicity | reduced IAV viral RNA levels dose dependently |  | Neither compound caused significant cytotoxicity | reduced IAV viral RNA levels dose dependently |  | increased | elevated | elevated | elevated | 43 nM | 53 nM |
